Results published in patent US12116364B2, “Heteroaryl compounds and uses thereof” (APRINOIA THERAPEUTICS INC., priority 2018, dated 2024).

Columns and labels:
[1] = target: recombinant tau proteins (human Tau, heparin-fiberized) (Homo sapiens, UniProt P10636); assay: Fluorescence quantitative Tau binding assay in vitro; settings: 0.04 uM fiberized recombinant tau, 30 mM Tris pH 7.5, 1 h, fluorometric saturation curve
Procedure: Expression and Purification of Human Tau Protein
• pET41a-Tau wild type • One Shot® BL21(DE3) Chemically Competent E. coli (Invitrogen, C600003) • Kanamycin sulfate (Sangon Biotech, A506636) • IPTG (Sangon Biotech, A100487) • Pipes buffer (100 mM Pipes, pH6.8, 1 mM EGTA, 1 mM MgSO4) • Hepes buffer (25 mM Hepes, pH7.2, 0.1 mM EDTA, 0.5 mM DTT, 100 mM NaCl) • Q-Sepharose Fast Flow column (GE Healthcare, 17-0510-01) • SP-Sepharose Fast Flow column (GE Healthcare, 17-0729-01) Procedures: Protein Expression: • Step 1: Transform 1 uL expression plasmid pET41a-tau wt into one One Shot® BL21(DE3) Chemically Competent E. coli, on ice 30 min. • Step 2: 42° C. heat shock 90 second and on ice 2 min, 37° C. recovery for 30 min, Plate small amount on LB(Kan+) agar plate incubate overnight at 37° C. • Step 3: Pick and resuspend a single colony in 200 mL liquid culture with 50 ug/mL Kanamycin to produce a starter culture. Inoculate starter culture and shake 200 rpm overnight at 37° C. • Step 4: Add 100× dilution Starter into fresh culture medium (Kan+) shake 200 rpm at 37° C. until OD600=0.8. • Step 5: Add IPTG (final conc. 1 mM) and express protein for 3 hr. • Step 6: Collect cell pellet and store at −80° C. for purification. Protein Purification: • Step 1: Cell pellet was resuspended in Pipes buffer. • Step 2: Sonication and centrifugation (15,000 rpm, 15 min at 4° C. • Step 3: The supernatant was placed in a boiling water bath for 20 min and subsequently centrifuged. The heat-stable proteins in the supernatant were loaded onto a Q-Sepharose Fast Flow column (20 mL) • Step 4: The flow through containing tau was loaded onto SP-Sepharose Fast Flow column (10 mL), eluted with Pipes buffer containing 0.2M NaCl. • Step 6: Fractions containing tau were pooled, concentrated and dialyzed against Hepes buffer, stored at −80° C. • Step 7: Reload SP-Flow through into Q-Sepharose Fast Flow column (20 mL) and SP-Sepharose Fast Flow column (10 mL) again, eluted with Pipes buffer containing 0.2M NaCl. • Step 8: Fractions containing tau were pooled, concentrated and dialyzed against Hepes buffer, stored at −80° C. Repeat step 6-7 twice, Collect all above all elution product and concentrated. Biological Assays Fluorescence Quantitative Tau Binding Assay In Vitro
2 uM of recombinant tau proteins and 15 uM of heparin were fiberized in 30 mM Tris (pH 7.5) buffer by overnight incubation at 37° C. 0.04 uM of recombinant tau proteins which was diluted in 30 mM Tris buffer (pH 7.5) was then reacted with test compounds (containing 1% DMSO) for 1 h. Regarding the fluorometric data, the binding saturation curve was created and the parameter estimation method was conducted using Prism software (GraphPad). Kd values were determined for each of test compounds. Table A lists Kd values of exemplary test compounds.

[2] = tested on: tau aggregates (tangles/threads) in temporal cortex sections of an AD brain; assay: Histological examination by fluorescence staining of AD brain sections; assay type: binding, human; settings: 0.001% (W/V) compound in 50% ethanol, 30 min, relative to PBB3; for Fluorescent binding Tangle: score for tangles; for Fluorescent binding Thread: score for threads
Procedure: The fluorescence binding assessment was performed as reported previously^1. For fluorescence labeling with PBB3 and test compounds, deparaffinized temporal cortex sections of an AD brain were incubated in 50% ethanol containing 0.001% (W/V) of PBB3 or test compound at room temperature for 30 min. The samples were rinsed with 50% ethanol for 5 min, dipped into distilled water twice for 3 min, and mounted in non-fluorescent mounting media ([…]; Vector Laboratories). Fluorescence images were captured using a DM4000 microscope (Leica) equipped with a custom filter cube for PBB3 (excitation band-pass at 391-437 nm and suppression low-pass with 458 nm cutoff).

[3] = target: [11C]PBB3 binding sites (tau aggregates) in temporal cortex homogenates of an Alzheimer's disease patient (Homo sapiens, UniProt P10636); assay: Fluorescence competitive binding assay in vitro ([11C]PBB3 displacement in Alzheimer's disease temporal cortex homogenates); settings: 5 nM [11C]PBB3, AD temporal cortex homogenate (100 μg tissue), 30 min, room temperature
Procedure: Fluorescence competitive binding assay in vitro was performed as reported previously1. Frozen tissues derived from the temporal cortex of an Alzheimer's disease patient was homogenized in 50 mM Tris-HCl buffer, pH 7.4, containing protease inhibitor cocktail (cOmplete™, EDTA-free; Roche), and stored at −80° C. pending analyses. To assay radioligand binding with homologous or heterologous blockade, these homogenates (100 μg tissue) were incubated with 5 nM [11C]PBB3 (molar radioactivity: 100-150 GBq/μmol) in the absence or presence of unlabeled PBB3 at varying concentrations ranging from 10-11-106 M in Tris-HCl buffer containing 10% ethanol, pH 7.4, for 30 min at room temperature. Non-specific binding of [11C]PBB3 was determined in the presence of 5×10^−7 M PBB3. Samples were run once only and specific radioligand binding was determined as pmol/g tissue. Inhibition constant (Ki) and percentage of displacement were determined by using non-linear regression to fit a concentration-binding plot to one-site and two-site binding models derived from the Cheng-Prusoff equation with GraphPad Prism version 6.0 (GraphPad Software), followed by F-test for model selection. In a one-site homologous blockade model, dissociation constant (Kd) was calculated from homologous competitive binding using this function: Kd=Ki=IC50−Radioligand
where IC50 and [Radioligand] stand for the concentration of the competitor inducing 50% inhibition and radioligand concentration, respectively. Experiments with [^11C]PBB3 and unlabeled PBB3 were performed in a dimly lit condition to avoid photoconversion of the compounds. Table B lists Ki values of exemplary test compounds.

[11C]PBB3 binding sites (tau aggregates) in temporal cortex homogenates of an Alzheimer's disease patient, sequence (P10636 623-695 limits assumed): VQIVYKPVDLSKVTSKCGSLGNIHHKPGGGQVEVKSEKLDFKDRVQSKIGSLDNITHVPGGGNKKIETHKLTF
recombinant tau proteins (human Tau, heparin-fiberized), sequence (P10636 whole entry): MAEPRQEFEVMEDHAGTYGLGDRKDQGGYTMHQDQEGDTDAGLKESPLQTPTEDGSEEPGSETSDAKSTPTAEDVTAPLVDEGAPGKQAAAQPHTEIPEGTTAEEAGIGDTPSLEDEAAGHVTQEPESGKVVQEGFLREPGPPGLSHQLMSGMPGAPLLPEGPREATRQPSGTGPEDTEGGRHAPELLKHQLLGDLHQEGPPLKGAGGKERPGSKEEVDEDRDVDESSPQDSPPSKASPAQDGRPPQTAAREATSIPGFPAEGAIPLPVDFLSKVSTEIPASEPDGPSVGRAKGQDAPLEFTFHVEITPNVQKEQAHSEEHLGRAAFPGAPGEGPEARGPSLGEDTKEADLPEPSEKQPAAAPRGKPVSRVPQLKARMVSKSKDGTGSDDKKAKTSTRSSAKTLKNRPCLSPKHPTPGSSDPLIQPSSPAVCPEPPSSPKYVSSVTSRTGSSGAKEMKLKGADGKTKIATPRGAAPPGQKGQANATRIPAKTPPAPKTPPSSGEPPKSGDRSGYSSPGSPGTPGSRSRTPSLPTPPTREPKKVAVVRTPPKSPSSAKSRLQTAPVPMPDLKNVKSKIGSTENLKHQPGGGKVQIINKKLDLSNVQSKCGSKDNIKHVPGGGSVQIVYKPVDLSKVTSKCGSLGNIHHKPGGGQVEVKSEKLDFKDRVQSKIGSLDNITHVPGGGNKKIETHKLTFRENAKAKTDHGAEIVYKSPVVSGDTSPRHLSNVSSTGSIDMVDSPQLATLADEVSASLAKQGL

| Structure (SMILES) | Kd [1] | Fluorescent binding Tangle [2] | Fluorescent binding Thread [2] | Ki [3] |
| --- | --- | --- | --- | --- |
| CNc1ccc(-c2ccc(-c3cc4ccncc4[nH]3)c(F)n2)cn1 [Compound E, 6-Fluoro-N-methyl-5-(1H-pyrrolo[2,3-c]pyridin-2-yl)-2,3′-bipyridin-6′-amine] | 2700 nM | 3/3 | 3/3 | 5 nM |
| Nc1ccc2nc(-c3ccc(-c4ccc(NCCF)nc4)cc3)sc2c1 [Compound I, 2-(4-(6-((2-Fluoroethyl)amino)pyridin-3-yl)phenyl)benzo[d]thiazol-6-amine] | 800 nM | 2 | 1.5 | 5 nM |
| CN(C)c1ccc(-c2ccc(-c3nc4ccc(NCC(O)CF)cc4s3)c(F)n2)cn1 (centres unmarked) [Compound X, 1-[[2-[6-[6-(dimethylamino)pyridin-3-yl]-2-fluoranyl-pyridin-3-yl]-1,3-benzothiazol-6-yl]amino]-3-fluoranyl-propan-2-ol] | 170 nM |  |  |  |
| CNc1ccc(-c2ccc(-c3cc4ccnc(O)c4[nH]3)cc2)cn1 [Compound C, 2-(4-(6-(Methylamino)pyridin-3-yl)phenyl)-1H-pyrrolo[2,3-c]pyridin-7-ol] | 250 nM | 2 | 1.5 | 25 nM |
| CNc1ccc(-c2cnc(-c3cc4ccncc4[nH]3)cc2F)cn1 [Compound T, 5-[4-Fluoranyl-6-(1H-pyrrolo[2,3-c]pyridin-2-yl)pyridin-3-yl]-N-methyl-pyridin-2-amine] | 2510 nM | 2.5/2.5 | 2.5/2.5 | 140 nM |
| CNc1ncc(-c2ccc(-c3nc4ccc(N)cc4s3)c(F)n2)cn1 [Compound Y, 2-[2-Fluoranyl-6-[2-(methylamino)pyrimidin-5-yl]pyridin-3-yl]-1,3-benzothiazol-6-amine] | > 10000 nM |  |  |  |
| CNc1ccc(-c2ccc(-c3cc4cnccc4[nH]3)cc2)cn1 [Compound M, 5-(4-(1H-Pyrrolo[3,2-c]pyridin-2-yl)phenyl)-N-methylpyridin-2-amine] | 2630 nM | 2.5 | 2 | 15 nM |
| CNc1ccc(-c2ccc(-c3nc4ccc(NCC(O)CF)cc4s3)nc2)cn1 (centres unmarked) [Compound V, 1-Fluoranyl-3-[[2-[5-[6-(methylamino)pyridin-3-yl]pyridin-2-yl]-1,3-benzothiazol-6-yl]amino]propan-2-ol] | 3570 nM | 2.5/2.5 | 2.5/2.5 | 7.5 nM |
| CNc1ncc(-c2cc(F)c(-c3nc4ccc(N)cc4s3)cn2)cn1 [Compound Z, 2-(4-Fluoro-6-(2-(methylamino)pyrimidin-5-yl)pyridin-3-yl)benzo[d]thiazol-6-amine] | 1450 nM | 3/3 | 3/3 | 5 nM |
| CNc1ccc(-c2ccc(-c3cn4cc(OCC(O)CF)ccc4n3)cc2)cn1 (centres unmarked) [Compound N, 1-Fluoro-3-(2-(4-(6-(methylamino)pyridin-3-yl)phenyl)imidazo[1,2-a]pyridin-6-yloxy)propan-2-ol] | 260 nM | 0.5 | 0 | 20 nM |
| Nc1ccc(-c2ccc(-c3cc4cnccc4[nH]3)cc2)cc1F [Compound L, 3-Fluoro-4′-(1H-pyrrolo[3,2-c]pyridin-2-yl)biphenyl-4-amine] | 540 nM | 2.5 | 1.5 | 5 nM |
| CN(C)c1ccc(-c2ccc(-c3cc4ccn(CC(O)CF)cc-4n3)cc2)cn1 (centres unmarked) [Compound G, 1-(2-(4-(6-(Dimethylamino)pyridin-3-yl)phenyl)-6H-pyrrolo[2,3-c]pyridin-6-yl)-3-fluoropropan-2-ol] | 280 nM | 2 | 0.5 | 10 nM |
| CNc1ccc(-c2ccc(-c3cc4ccncc4[nH]3)nc2F)cn1 [Compound S, 5-[2-Fluoranyl-6-(1H-pyrrolo[2,3-c]pyridin-2-yl)pyridin-3-yl]-N-methyl-pyridin-2-amine] | 940 nM | 3/3 | 3/3 | 15 nM |
| CNc1ccc(-c2cc(F)c(-c3cc4ccncc4[nH]3)cn2)cn1 [Compound R, 4-Fluoro-N-methyl-5-(1H-pyrrolo[2,3-c]pyridin-2-yl)-2,3′-bipyridin-6′-amine] | 1820 nM | 3/3 | 3/3 | 15 nM |
| Nc1cccc(-c2ccc(-c3cc4ccncc4[nH]3)cc2)c1 [Compound A, 3-[4-(1H-Pyrrolo[2,3-c]pyridin-2-yl)phenyl]aniline] | 500 nM | 2/2 | 2/2 | 45 nM |
| CN(C)c1ccc(-c2ccc(-c3cn4cc(OCC(O)CF)ccc4n3)cc2)cn1 (centres unmarked) [Compound O, 1-(2-(4-(6-(Dimethylamino)pyridin-3-yl)phenyl)imidazo[1,2-a]pyridin-6-yloxy)-3-fluoropropan-2-ol] | 270 nM | 1.5/1.5 | 1.5/1.5 | 10 nM |
| CN(C)c1ccc(-c2ccc(-c3nc4ccncc4n3CCF)cc2)cn1 [Compound K, 5-[4-[3-(2-fluoranylethyl)imidazo[4,5-c]pyridin-2-yl]phenyl]-N,N-dimethyl-pyridin-2-amine] | 3500 nM |  |  |  |
| COc1ccc2nc(-c3ccc(-c4ccc(N(C)C)nc4)nc3F)cn2c1 [Compound U, 6-Fluoro-5-(6-methoxyimidazo[1,2-a]pyridin-2-yl)-N,N-dimethyl-2,3′-bipyridin-6′-amine] | 1510 nM |  |  |  |
| COc1ccc(-c2ccc(-c3cc4ccn(CCO)cc-4n3)cc2)cc1 [Compound F, 2-(2-(4′-Methoxybiphenyl-4-yl)-6H-pyrrolo[2,3-c]pyridine-6-yl)ethanol] | 340 nM |  |  |  |
| Nc1ccc(-c2ccc(-c3nc4ccncc4o3)cc2)cn1 [Compound H, 5-(4-(Oxazolo[5,4-c]pyridin-2-yl)phenyl)pyridin-2-amine] | 90 nM |  |  |  |
